This passage reports IC50 results from ChEMBL document CHEMBL1201862, “PubChem BioAssay data set” (2004).

Active and inactive are the calls of the source.

Assay [1] concerns the target Fructose-bisphosphate aldolase (Mycobacterium tuberculosis, UniProt P9WQA3). In words: Fluorescence-based biochemical high throughput dose response assay for inhibitors of the fructose-bisphosphate aldolase (FBA) of M. tuberculosis. The assay is classed as functional.
The target of assay [2] is Small ubiquitin-related modifier 1 (Homo sapiens, UniProt P63165). In words: SUMO1 protein-protein binding blockers, potency – biochemical, FRET, dose response (AID 624383). Conditions: read-out: IC50_Mean. The assay is classed as functional.
Sequence of Small ubiquitin-related modifier 1 (P63165 whole entry): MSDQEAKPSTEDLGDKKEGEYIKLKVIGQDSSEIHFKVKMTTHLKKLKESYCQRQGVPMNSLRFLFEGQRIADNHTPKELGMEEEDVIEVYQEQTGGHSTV

Sequence of Fructose-bisphosphate aldolase (P9WQA3 whole entry): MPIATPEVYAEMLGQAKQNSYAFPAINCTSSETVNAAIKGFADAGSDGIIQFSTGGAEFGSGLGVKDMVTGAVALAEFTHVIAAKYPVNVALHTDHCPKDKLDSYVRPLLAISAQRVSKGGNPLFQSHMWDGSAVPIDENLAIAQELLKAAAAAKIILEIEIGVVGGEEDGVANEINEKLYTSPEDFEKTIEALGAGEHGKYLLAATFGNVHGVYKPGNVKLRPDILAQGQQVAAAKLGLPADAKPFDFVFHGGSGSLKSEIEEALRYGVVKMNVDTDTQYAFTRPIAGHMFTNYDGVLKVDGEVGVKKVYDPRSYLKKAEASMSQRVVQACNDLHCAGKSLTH

On to `N#Cc1c(N2CCCCC2)nc(N)c2c(N)nc(SCC(=O)O)cc12`, for which, in assay [1], the IC50 is 8.03 µM (active).

As for `Oc1c(Cl)cc(Cl)c(Cl)c1Cc1c(O)c(Cl)cc(Cl)c1Cl` [HEXACHLOROPHENE], the IC50 in assay [2] is 38.9 µM (inactive).
